Measurements as given in US20240408169A1 (priority 2023, published 2024).
Like-named read-outs stand apart in the source and are kept apart here. *1 amine or outer side, *2 acyl side, *3 side chain or, on linkers, in order; H or OH if unused. Where a SMILES comes first, the peptide text is derived from it. Bridges are numbered along the chain shown (N, C = ends). [ ]: non-standard residue; d: D form. The star is where a group is joined. X185 = CN([C@@H](Cc1cc(Cl)ccc1-c1ccc(N2CCOC(C)(C)C2)cc1)C(=O)[*:2])[*:1]; X122 = CN([C@@H](Cc1cc(Cl)ccc1C1=CCN(C(=O)C(C)(C)C)CC1)C(=O)[*:2])[*:1]; X127 = CN([C@@H](Cc1cc(F)ccc1-c1cnn(S(=O)(=O)C2CC2)c1)C(=O)[*:2])[*:1]; X141 = CN([C@@H](Cc1cc(Cl)ccc1C1=CCN(S(C)(=O)=O)C1)C(=O)[*:2])[*:1]; X137 = CN([C@@H](Cc1cc(F)ccc1-c1cnn(S(C)(=O)=O)c1)C(=O)[*:2])[*:1]; NMePhe(5-Cl,2-O(2-Pym)) = CN[C@@H](Cc1cc(Cl)ccc1Oc1ncccn1)C(=O)O; X203 = CN([C@@H](Cc1cc(Cl)ccc1-c1cnn(C(F)F)c1)C(=O)[*:2])[*:1]; X123 = CN([C@@H](Cc1cc(Cl)ccc1-c1ccc[nH]c1=O)C(=O)[*:2])[*:1]; X147 = CCSc1ccc(-c2ccc(Cl)cc2C[C@@H](C(=O)[*:2])N(C)[*:1])cn1; NMehhhLys(Me) = CN([C@@H](CCCCCCCN(C)[*:3])C(=O)[*:2])[*:1]; X118 = Cc1cc(-c2ccc(Cl)cc2C[C@@H](C(=O)[*:2])N(C)[*:1])cnn1; X22 = CN([C@@H](Cc1cc(Cl)ccc1-c1cnn(C)c1)C(=O)[*:2])[*:1]; X204 = CN([C@@H](Cc1cc(F)ccc1-c1ccnnc1)C(=O)[*:2])[*:1]; NMe(hhhLys) = CN([C@@H](CCCCCCCN[*:3])C(=O)[*:2])[*:1]; Oxane2carbonyl(2R-CF3) = O=C([C@@]1(C(F)(F)F)CCCCO1)*; Cyclobutanecarbonyl(1-CF3) = O=C(C1(C(F)(F)F)CCC1)*; cBuCO(3,3-F2-1-CF3) = O=C(C1(C(F)(F)F)CC(F)(F)C1)*; X161 = Cc1ccc(F)cc1C[C@@H](C(=O)[*:2])N(C)[*:1]; Pro(trans-4-F) = O=C(O)[C@@H]1C[C@@H](F)CN1; Pivaloyl(3,3,3-F3) = CC(C)(C(=O)*)C(F)(F)F; Gly(cPr) = N[C@H](C(=O)O)C1CC1

Columns and labels:
[1] = system: NCI-H1048 cells; assay: MTT proliferation assay, NCI-H1048; assay type: cell-based; settings: 5 days compound exposure, 1:3 serial dilution starting at 10 μM;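 also: Dose-response in 96-well plates over 8 or 10 concentration points, with exposure spanning 3-4 cell doublings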
[2] = target: T1, CyclinA2/CDK2 (Homo sapiens, UniProt P20248); assay: Fluorescence Polarization (FP) competitive binding assay, Cyclin A2/Cdk2;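 also: plates equilibrated two hours at room temperature before polarization reading, IC50 fitted from eight-concentration compound titration curves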
T1 construct: purchased CRELUX Protein Services

[3] = target: T2, CyclinE1/CDK2 (Homo sapiens, UniProt P24864); assay: Fluorescence Polarization (FP) competitive binding assay, Cyclin E1/Cdk2;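 also: readings taken after two-hour equilibration at room temperature in HEPES buffer with NaCl, DTT, NP-40 and BSA, IC50 fitted from eight-concentration serial dilution series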
T2 construct: purchased Eurofins, discovery 14-475

[4] = target: T3, CyclinB1/CDK1 (Homo sapiens, UniProt P14635); assay: Fluorescence Polarization (FP) competitive binding assay, Cyclin B1/Cdk1;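 also: fluorescence polarization read after equilibration at room temperature, with IC50 taken from serially diluted dose-response curves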
T3 construct: purchased Eurofins, discovery 14-450

[5] = system: OVCAR3 cells; assay: MTT proliferation assay, OVCAR3; assay type: cell-based; settings: 5 days compound exposure, 1:3 serial dilution starting at 10 μM;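 also: compound given as an 8- or 10-point series, one day after plating, with exposure covering roughly 3-4 cell doublings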
[6] = 8 nM Cyclin A2/Cdk2, 2 nM FAM probe, average of 2-3 independent experiments, read-out: Cyclin A FP IC50
[7] = 10 nM Cyclin E1/Cdk2, 2 nM FAM probe, average of 2-3 independent experiments, read-out: Cyclin E FP IC50
[8] = 10 nM Cyclin B1/Cdk1, 2 nM FAM probe; average of 2-3 independent experiments; read-out: Cyclin B FP IC50
[9] = read-out: Cyclin B FP IC50; 10 nM Cyclin B1/Cdk1, 2 nM FAM probe; average of 2-3 independent experiments

SMILES | GI50 [1] [nM] | IC50 [2, 6] [nM] | IC50 [3, 7] [nM] | IC50 [4, 8] [nM] | GI50 [5] [nM] | IC50 [2] [nM] | IC50 [3] [nM] | IC50 [4, 9] [nM] | IC50 ([2]; read-out: Cyclin A FP IC50, 8 nM Cyclin A2/Cdk2, 2 nM FAM probe, average of 2-3 independent experiments) [nM]
Cc1ccc(F)cc1C[C@H]1C(=O)N(C)CCCCCCC[C@H](N(C)C(=O)[C@@H](NC(=O)[C@@H]2C[C@@H](F)CN2C(=O)C2(C(F)(F)F)CC(F)(F)C2)C2CC2)C(=O)N[C@@H](CC(C)C)C(=O)N1C [Example 123] ({cBuCO(3,3-F2-1-CF3)}-[Pro(trans-4-F)][Gly(cPr)][NMehhhLys(Me)]L[X161]; lactam 3-C) | 20 | 30 | 120 | 20 | 20 |  |  |  | 
CC(=O)N1C2CCC1CC(c1ccc(F)cc1C[C@H]1C(=O)N(C)CCCCCCC[C@H](N(C)C(=O)[C@@H](NC(=O)[C@@H]3C[C@@H](F)CN3C(=O)C3(C(F)(F)F)CC(F)(F)C3)C3CC3)C(=O)N[C@@H](CC(C)C)C(=O)N1C)C2 (single isomer, unassigned) [Example 59-P1] | 20 | 120 | 850 | 20 | 20 |  |  |  | 
CC(C)C[C@@H]1NC(=O)[C@@H](N(C)C(=O)[C@@H](NC(=O)[C@@H]2C[C@@H](F)CN2C(=O)C2(C(F)(F)F)CC(F)(F)C2)C2CC2)CCCCCCCN(C)C(=O)[C@H](Cc2cc(Cl)ccc2-c2cnn(C(F)F)c2)N(C)C1=O [Example 200] ({cBuCO(3,3-F2-1-CF3)}-[Pro(trans-4-F)][Gly(cPr)][NMehhhLys(Me)]L[X203]; lactam 3-C) | 40 | 30 | 890 | 20 | 30 |  |  |  | 
CCSc1ccc(-c2ccc(Cl)cc2C[C@H]2C(=O)N(C)CCCCCCC[C@H](N(C)C(=O)[C@@H](NC(=O)[C@@H]3C[C@@H](F)CN3C(=O)C3(C(F)(F)F)CC(F)(F)C3)C3CC3)C(=O)N[C@@H](CC(C)C)C(=O)N2C)cn1 [Example 181] ({cBuCO(3,3-F2-1-CF3)}-[Pro(trans-4-F)][Gly(cPr)][NMehhhLys(Me)]L[X147]; lactam 3-C) | 240 | 40 | 1580 | 20 | 420 |  |  |  | 
CC(C)C[C@@H]1NC(=O)[C@@H](N(C)C(=O)[C@@H](NC(=O)[C@@H]2C[C@@H](F)CN2C(=O)C2(C(F)(F)F)CC(F)(F)C2)C2CC2)CC=CCCCCNC(=O)[C@H](Cc2cc(Cl)cnc2OC2CC2)N(C)C1=O (single isomer, unassigned) [Example 102-P1] | 350 | 310 | 1110 | 20 | 810 |  |  |  | 
CC(C)C[C@@H]1NC(=O)[C@@H](N(C)C(=O)[C@@H](NC(=O)[C@@H]2C[C@@H](F)CN2C(=O)C2(C(F)(F)F)CC(F)(F)C2)C2CC2)CCCCCCCN(C)C(=O)[C@H](Cc2cc(Cl)ccc2-c2ccc[nH]c2=O)N(C)C1=O [Example 208] ({cBuCO(3,3-F2-1-CF3)}-[Pro(trans-4-F)][Gly(cPr)][NMehhhLys(Me)]L[X123]; lactam 3-C) | 830 |  |  |  | 1960 | 210 | 6400 | 20 | 
CC(C)C[C@@H]1NC(=O)[C@@H](N(C)C(=O)[C@@H](NC(=O)[C@@H]2C[C@@H](F)CN2C(=O)C2(C(F)(F)F)CC(F)(F)C2)C2CC2)CCCCCCCN(C)C(=O)[C@H](Cc2cc(Cl)ccc2C2=CCN(C(=O)C(C)(C)C)CC2)N(C)C1=O [Example 144] ({cBuCO(3,3-F2-1-CF3)}-[Pro(trans-4-F)][Gly(cPr)][NMehhhLys(Me)]L[X122]; lactam 3-C) | 70 | 20 | 840 | 20 | 70 |  |  |  | 
CC(C)C[C@@H]1NC(=O)[C@@H](N(C)C(=O)[C@@H](NC(=O)[C@@H]2C[C@@H](F)CN2C(=O)[C@@]2(C(F)(F)F)CCCCO2)C2CC2)CCCCCCCN(C)C(=O)[C@H](Cc2cc(F)ccc2-c2cnn(S(C)(=O)=O)c2)N(C)C1=O [Example 303] ({Oxane2carbonyl(2R-CF3)}-[Pro(trans-4-F)][Gly(cPr)][NMehhhLys(Me)]L[X137]; lactam 3-C) | 10 | 30 | 100 | 20 | 10 |  |  |  | 
CC(C)C[C@@H]1NC(=O)[C@@H](N(C)C(=O)[C@@H](NC(=O)[C@@H]2C[C@@H](F)CN2C(=O)C(C)(C)C(F)(F)F)C2CC2)CCCCCCCN(C)C(=O)[C@H](Cc2cc(Cl)ccc2-c2cnn(C)c2)N(C)C1=O [Example 204] ({Pivaloyl(3,3,3-F3)}-[Pro(trans-4-F)][Gly(cPr)][NMehhhLys(Me)]L[X22]; lactam 3-C) | 10 |  |  |  | 10 |  | 160 | 20 | 20
CC(C)C[C@@H]1NC(=O)[C@@H](N(C)C(=O)[C@@H](NC(=O)[C@@H]2CCCN2C(=O)C2(C(F)(F)F)CCC2)C2CC2)CCCCCCCN(C)C(=O)[C@H](Cc2cc(Cl)ccc2-c2cnn(C)c2)N(C)C1=O [Example 76] ({Cyclobutanecarbonyl(1-CF3)}-P[Gly(cPr)][NMehhhLys(Me)]L[X22]; lactam 3-C) | 80 | 20 | 880 | 20 | 120 |  |  |  | 
CC(C)C[C@@H]1NC(=O)[C@@H](N(C)C(=O)[C@@H](NC(=O)[C@@H]2C[C@@H](F)CN2C(=O)C2(C(F)(F)F)CCC2)C2CC2)CCCCCCCNC(=O)[C@H](Cc2cc(Cl)ccc2Oc2ncccn2)N(C)C1=O [Example 158] ({Cyclobutanecarbonyl(1-CF3)}-[Pro(trans-4-F)][Gly(cPr)][NMe(hhhLys)]L[NMePhe(5-Cl,2-O(2-Pym))]; lactam 3-C) | 20 | 100 | 210 | 20 | 20 |  |  |  | 
CC(C)C[C@@H]1NC(=O)[C@@H](N(C)C(=O)[C@@H](NC(=O)[C@@H]2C[C@@H](F)CN2C(=O)[C@@]2(C(F)(F)F)CCCCO2)C2CC2)CCCCCCCN(C)C(=O)[C@H](Cc2cc(F)ccc2-c2cnn(S(=O)(=O)C3CC3)c2)N(C)C1=O [Example 282] ({Oxane2carbonyl(2R-CF3)}-[Pro(trans-4-F)][Gly(cPr)][NMehhhLys(Me)]L[X127]; lactam 3-C) | 10 | 30 | 100 | 20 | 10 |  |  |  | 
CC(C)C[C@@H]1NC(=O)[C@@H](N(C)C(=O)[C@@H](NC(=O)[C@@H]2C[C@@H](F)CN2C(=O)C2(C(F)(F)F)CC(F)(F)C2)C2CC2)CCCCCCCN(C)C(=O)[C@H](Cc2cc(F)ccc2-c2ccnnc2)N(C)C1=O [Example 279] ({cBuCO(3,3-F2-1-CF3)}-[Pro(trans-4-F)][Gly(cPr)][NMehhhLys(Me)]L[X204]; lactam 3-C) | 80 | 100 | 1920 | 20 | 90 |  |  |  | 
CC(C)C[C@@H]1NC(=O)[C@@H](N(C)C(=O)[C@@H](NC(=O)[C@@H]2C[C@@H](F)CN2C(=O)C2(C(F)(F)F)CCC2)C2CC2)CC=CCCCCNC(=O)[C@H](Cc2cc(Cl)ccc2Oc2ncccn2)N(C)C1=O (single isomer, unassigned) [Example 156-P2] | 90 | 350 | 240 | 20 | 100 |  |  |  | 
CC(C)C[C@@H]1NC(=O)[C@@H](N(C)C(=O)[C@@H](NC(=O)[C@@H]2C[C@@H](F)CN2C(=O)C2(C(F)(F)F)CC(F)(F)C2)C2CC2)CCCCCCCN(C)C(=O)[C@H](Cc2cc(F)ccc2-c2cnn(S(C)(=O)=O)c2)N(C)C1=O [Example 95] ({cBuCO(3,3-F2-1-CF3)}-[Pro(trans-4-F)][Gly(cPr)][NMehhhLys(Me)]L[X137]; lactam 3-C) | 10 | 50 | 530 | 20 | 20 |  |  |  | 
CC(C)C[C@@H]1NC(=O)[C@@H](N(C)C(=O)[C@@H](NC(=O)[C@@H]2C[C@@H](F)CN2C(=O)C2(C(F)(F)F)CC(F)(F)C2)C2CC2)CCCCCCCN(C)C(=O)[C@H](Cc2cc(Cl)ccc2-c2ccc(N3CCOC(C)(C)C3)cc2)N(C)C1=O [Example 366] ({cBuCO(3,3-F2-1-CF3)}-[Pro(trans-4-F)][Gly(cPr)][NMehhhLys(Me)]L[X185]; lactam 3-C) | 20 | 20 | 1050 | 20 | 20 |  |  |  | 
CC(=O)N1C2C=C(c3ccc(F)cc3C[C@H]3C(=O)N(C)CCCCCCC[C@H](N(C)C(=O)[C@@H](NC(=O)[C@@H]4C[C@@H](F)CN4C(=O)C4(C(F)(F)F)CC(F)(F)C4)C4CC4)C(=O)N[C@@H](CC(C)C)C(=O)N3C)CC1CC2 (some centres unmarked) [Example 149] | 30 | 20 | 560 | 20 | 40 |  |  |  | 
Cc1cc(-c2ccc(Cl)cc2C[C@H]2C(=O)N(C)CCCCCCC[C@H](N(C)C(=O)[C@@H](NC(=O)[C@@H]3C[C@@H](F)CN3C(=O)C3(C(F)(F)F)CC(F)(F)C3)C3CC3)C(=O)N[C@@H](CC(C)C)C(=O)N2C)cnn1 [Example 296] ({cBuCO(3,3-F2-1-CF3)}-[Pro(trans-4-F)][Gly(cPr)][NMehhhLys(Me)]L[X118]; lactam 3-C) | 70 | 70 | 2810 | 20 | 100 |  |  |  | 
CC(C)C[C@@H]1NC(=O)[C@@H](N(C)C(=O)[C@@H](NC(=O)[C@@H]2C[C@@H](F)CN2C(=O)C2(C(F)(F)F)CC(F)(F)C2)C2CC2)CCCCCCCN(C)C(=O)[C@H](Cc2cc(Cl)ccc2C2=CCN(S(C)(=O)=O)C2)N(C)C1=O [Example 309] ({cBuCO(3,3-F2-1-CF3)}-[Pro(trans-4-F)][Gly(cPr)][NMehhhLys(Me)]L[X141]; lactam 3-C) | 10 | 20 | 930 | 20 | 10 |  |  |  | 
